From patent US20240093148A1, “METHOD FOR DIFFERENTIATING HUMAN INDUCED PLURIPOTENT STEM CELLS INTO OLIGODENDROCYTES, AND KIT AND USE” (ALLIFE MEDICINE (ZHUHAI) LIMITED, priority 2021, published 2024)

System: human induced pluripotent stem cells
Test: Induction of oligodendrocytes from iPSC in OPC mature culture medium with or without puerarin (immunofluorescence, cell count)
Type: cell-based
Protocol: Cleaned with DPBS three times, 3 minutes per time, and fixed with 4% PFA at room temperature for 40 minutes. Cleaned with DPBS three times, 3 minutes per time. 0.5% TritonX-100, perforation for 15 minutes. 5% BSA+0.15% TritonX-100, blocked at room temperature for 1 hour. Preparation of PBST: DPBS+1% BSA+0.15% TritonX-100. The primary antibody was added, stay overnight at 4 degrees. Recycled the primary antibody solution and cleaned it with PB ST three times for 10 minutes each time. The secondary antibody was added with a ratio of 1:500, stayed overnight at 4 degrees, away from light. Cleaned with PB ST three times for 10 minutes each time. 5 μg/ml DAPI for 2-3 minutes, away from light. Cleaned with DPBS and added 90% glycerol.
OPC mature medium—containing puerarin: 95% DMEM/F-12 medium, 1% non-essential amino acid, 1% GlutaMAX-I, 0.1 mM 2-mercaptoethanol, 1% N2 supplement, 2% B27 supplement, 10 ng/mL PDGF-AA, 10 ng/mL IGF-1, 5 ng/mL HGF, 10 ng/mL NT3, 60 ng/mL T3, 100 ng/mL Biotin, 1 μM cAMP, 25 μM Puerarin, 25 μg/ml insulin. […]
On the 37th day of cultivation, the percentage of oligodendrocytes in all cells was quantitatively counted, as shown in FIG. 3.

In the case of `O=c1c(-c2ccc(O)cc2)coc2c([C@@H]3O[C@H](CO)[C@@H](O)[C@H](O)[C@H]3O)c(O)ccc12` [puerarin, Puerarin], the “percentage of oligodendrocytes in all cells” value (day 37 of cultivation, 25 μM puerarin in OPC mature culture medium, control medium without puerarin about 21%) is reported as “about 36%” and the “increase of the number of oligodendrocytes” value (later stage of induction of iPSC to oligodendrocytes) is reported as 30%.
